Assays:
[1] = molecular target: T1, Glycogen synthase kinase-3 beta (Homo sapiens, UniProt P49841); test: Inhibition of human full length His-tagged GSK3-beta expressed in baculovirus by alphaLISA assay
[2] = molecular target: T1, Glycogen synthase kinase-3 beta; test: Inhibition of human flag-tagged GSK3-beta expressed in HEK-MSRII cells assessed as CRMP-2 phosphorylation by alphaLISA assay; type: cell-based
[3] = molecular target: Cyclin-dependent kinase 2 (Homo sapiens, UniProt P24941); test: Inhibition of recombinant CDK2 expressed in baculovirus using […] by 33-P leadseeker assay
[4] = molecular target: T1, Glycogen synthase kinase-3 beta; test: Inhibition of human GSK3-beta expressed in baculovirus by fluorescence polarization assay

T1 sequence (P49841 whole entry): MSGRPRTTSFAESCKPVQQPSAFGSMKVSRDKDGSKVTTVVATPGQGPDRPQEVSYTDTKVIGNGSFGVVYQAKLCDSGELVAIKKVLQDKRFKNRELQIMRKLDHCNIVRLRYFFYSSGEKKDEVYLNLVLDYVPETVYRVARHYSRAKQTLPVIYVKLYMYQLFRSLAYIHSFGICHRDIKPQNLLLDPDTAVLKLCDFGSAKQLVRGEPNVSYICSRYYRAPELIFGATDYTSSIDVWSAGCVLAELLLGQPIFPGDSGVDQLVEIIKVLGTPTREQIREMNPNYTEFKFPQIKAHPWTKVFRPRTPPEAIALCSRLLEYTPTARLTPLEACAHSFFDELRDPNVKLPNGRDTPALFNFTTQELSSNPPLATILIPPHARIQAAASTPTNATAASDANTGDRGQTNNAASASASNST

| IC50 [1] [nM] | IC50 [2] [nM] | IC50 [3] [nM] | IC50 [4] [nM] | Structure (SMILES) |
| --- | --- | --- | --- | --- |
| 10000 | > 100000 | > 15800 | – | COc1ncc(-c2ccc(N3CCOCC3)cc2)c2sc(-c3ccncc3)cc12 |
| – | 7940 | 12600 | 316 | O=c1[nH]cc(-c2cccc3cccnc23)c2sc(-c3ccncc3)cc12 |
| – | 631 | 3980 | 10 | N#CCc1cccc(-c2c[nH]c(=O)c3cc(-c4ccncc4)sc23)c1 |
| – | 6310 | > 15800 | 316 | CN(C)C(=O)c1ccccc1-c1c[nH]c(=O)c2cc(-c3ccncc3)sc12 |
| – | > 100000 | – | 2510 | Cc1cc(-c2cc3c(=O)[nH]cc(-c4cccc(NS(C)(=O)=O)c4)c3s2)ccn1 |
| – | 5010 | 5010 | 158 | COc1cc(F)ccc1-c1c[nH]c(=O)c2cc(-c3ccncc3)sc12 |
| – | 3160 | 6310 | 126 | CCOc1ccc(-c2c[nH]c(=O)c3cc(-c4ccncc4)sc23)cn1 |
| 251 | > 100000 | > 15800 | – | Cn1cc(-c2ccc(N3CCOCC3)cc2)c2sc(-c3ccncc3)cc2c1=O |
| 12.6 | 398 | 251 | – | O=c1[nH]cc(-c2ccc(N3CCOCC3)cc2)c2sc(-c3cn[nH]c3)cc12 |
| – | 3980 | > 15800 | 10 | O=c1[nH]cc(-c2cccc(Cl)n2)c2sc(-c3ccncc3)cc12 |
| 20 | > 100000 | 3160 | – | CS(=O)(=O)Nc1cccc(-c2c[nH]c(=O)c3cc(-c4ccnc5[nH]ccc45)sc23)c1 |
| – | 631 | 1580 | 6.31 | O=c1[nH]cc(-c2ccc3c(c2)OCCO3)c2sc(-c3ccncc3)cc12 |
| – | 79.4 | 200 | 5.01 | N#Cc1ccc(F)c(-c2c[nH]c(=O)c3cc(-c4ccncc4)sc23)c1 |
| 63.1 | 1260 | 15800 | 501 | O=c1[nH]cc(-c2ccc(N3CCOCC3)cc2)c2sc(-c3ccncc3)cc12 |
| – | 316 | 158 | 12.6 | N#Cc1cscc1-c1c[nH]c(=O)c2cc(-c3ccncc3)sc12 |
| – | 3980 | 5010 | 100 | COCc1ccccc1-c1c[nH]c(=O)c2cc(-c3ccncc3)sc12 |
